Tests used:
[1] = system: preformed stress granules in human iPSC-derived cortical neurons; experiment: Dissolution of preformed stress granules in iPSC-derived cortical neurons; assay type: cell-based; settings: 50 μM added after 30 min of 500 μM NaAsO2
Protocol: i3N iPSC clones were gifts from Michael E. Ward (National Institutes of Health, Bethesda, MD, USA) and were used to generate a G3BP1-mNeongreen knock-in iPSC line. iPS neurons were differentiated with a two-step protocol (predifferentiation and maturation) as previously described ([Wang et al., 2017]). For predifferentiation, iPSCs were incubated with 1 µg/ml doxycycline hyclate (Sigma-Aldrich) for 3 days at a density of 1.2 × 10^6 cells/well in six-well dishes coated with Matrigel in knockout DMEM (KO-DMEM)/F12 medium (Thermo Fisher Scientific) containing N2 supplement (Thermo Fisher Scientific), non-essential amino acids (NEAA; Thermo Fisher Scientific), GlutaMAX Supplement (Thermo Fisher Scientific), and Y-27632 ([…] Technologies). The medium was changed daily and Y-27632 was removed from day 2. For maturation, predifferentiated precursor cells were dissociated, counted, and subplated at 25 × 10^4 cells/ml on dishes coated with 50 μg/ml poly-L-ornithine in BrainPhys neuronal medium ([…] Technologies) containing N2 (Thermo Fisher Scientific), B-27, 20 ng/ml BDNF (PeproTech), 20 ng/ml GDNF (PeproTech), 500 µg/ml dibutyryl cyclic-AMP (Sigma-Aldrich), 200 nM L-ascorbic acid (Sigma-Aldrich), 1 µg/ml natural mouse laminin (Thermo Fisher Scientific), 1 μM Ara-C (Sigma-Aldrich), and 1 µg/ml doxycycline hyclate. Half-medium was changed every other day. […]

[2] = biological target: T1, NTF2L domain of G3BP1 (GFP-NTF2L) interaction with caprin 1 and USP10 (Homo sapiens, UniProt Q13283); experiment: Coimmunoprecipitation of GFP-NTF2L with caprin 1 and USP10 in HEK293T lysates; assay type: biochemical; settings: 25 and 50 μM, GFP IP
T1 construct: lysates expressing the NTF2L domain of G3BP1 (GFP-NTF2L); expressed in transfected cells; host or cells: HEK293T cells expressing GFP-NTF2L (lysate)
T1 sequence (Q13283 11-133 limits assumed): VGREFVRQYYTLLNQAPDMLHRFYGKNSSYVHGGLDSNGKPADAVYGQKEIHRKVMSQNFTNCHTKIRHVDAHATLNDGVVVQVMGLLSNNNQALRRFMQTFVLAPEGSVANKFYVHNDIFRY

CC(NC(=O)C(NC(=O)C(NC(=O)CCC(C)(C)C)C(C)(C)O)C(C)c1ccccc1)C(=O)N1CCCC1c1ccccc1 (centres unmarked) [G3Ib]
dissolution of preformed stress granules [1]: nearly instantaneously dissolved stress granules | interaction of NTF2L domain with caprin 1 and USP10 [2]: dose-dependent reduction
